Reference: patent US6432984B1, “Pyrazolecarboxylic acid derivatives, their preparation, pharmaceutical compositions containing them” (Sanofi-Synthelabo, priority 1999, dated 2002)

Tests used:
[1] = biological target: T1, CB1 receptors present in the brain (Mus musculus, UniProt P47746); experiment: duration of occupation of the CB1 receptors present in the brain, in vivo after oral administration; details: mice, oral 10 mg/kg; for % of occupation of the receptors, 1 hour: 1 hour after administration; for % of occupation of the receptors, 24 hours: 24 hours after administration
T1 construct: from tissue; host or cells: mouse brain
From the text: Moreover, the duration of occupation of the CB1 receptors present in the brain by the 3 compounds below was compared: […]

[2] = system: hypothermia induced with a cannabinoid receptor agonist (WIN 55212-2); experiment: antagonism of the hypothermia induced with WIN 55212-2; type: in vivo; details: mice; for ED50: Mus musculus, oral, WIN 55212-2 induced hypothermia; for Duration of action, 24 h, oral dose 1 mg/kg: oral dose 1 mg/kg
From the text: In this test, the activity and the duration of action of 3 compounds were compared.

[3] = biological target: T2, CB1 cannabinoid receptors (Homo sapiens, UniProt P21554); experiment: in vitro affinity for CB1 cannabinoid receptors (conditions of Devane et al.)
[4] = biological target: T2, CB1 cannabinoid receptors; experiment: models of adenylate-cyclase inhibition; type: biochemical; details: as described in Rinaldi-Carmona et al. 1996
From the text: More particularly, the compound of the present invention, in its native form or in the form of one of its pharmaceutically acceptable salts, is a powerful and selective antagonist of the CB1 cannabinoid receptors.

T2 sequence (P21554 whole entry): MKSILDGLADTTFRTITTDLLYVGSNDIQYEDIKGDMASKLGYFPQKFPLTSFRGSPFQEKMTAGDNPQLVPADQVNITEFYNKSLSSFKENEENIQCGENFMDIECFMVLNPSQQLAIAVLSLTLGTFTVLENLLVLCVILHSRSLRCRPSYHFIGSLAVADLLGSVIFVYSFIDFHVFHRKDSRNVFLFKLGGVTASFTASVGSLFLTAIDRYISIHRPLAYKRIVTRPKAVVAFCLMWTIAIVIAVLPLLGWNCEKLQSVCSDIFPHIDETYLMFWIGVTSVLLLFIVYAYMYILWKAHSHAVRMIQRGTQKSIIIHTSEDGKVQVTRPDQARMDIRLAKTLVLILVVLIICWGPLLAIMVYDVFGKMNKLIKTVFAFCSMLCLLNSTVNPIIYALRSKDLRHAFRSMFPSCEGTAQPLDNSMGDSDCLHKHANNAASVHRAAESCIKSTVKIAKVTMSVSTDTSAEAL
T1 sequence (P47746 whole entry): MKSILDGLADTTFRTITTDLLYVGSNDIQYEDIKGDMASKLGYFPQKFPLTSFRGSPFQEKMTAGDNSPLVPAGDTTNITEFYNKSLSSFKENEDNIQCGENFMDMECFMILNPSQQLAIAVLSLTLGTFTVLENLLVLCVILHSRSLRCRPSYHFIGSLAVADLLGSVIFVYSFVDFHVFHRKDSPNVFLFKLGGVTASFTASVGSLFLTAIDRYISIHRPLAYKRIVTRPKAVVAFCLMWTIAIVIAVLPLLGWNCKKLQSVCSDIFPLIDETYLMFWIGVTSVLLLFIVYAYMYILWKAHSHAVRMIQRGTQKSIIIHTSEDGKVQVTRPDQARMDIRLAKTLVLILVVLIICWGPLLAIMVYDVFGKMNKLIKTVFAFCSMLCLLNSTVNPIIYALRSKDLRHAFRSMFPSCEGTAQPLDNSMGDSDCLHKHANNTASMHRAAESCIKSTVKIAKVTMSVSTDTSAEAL

SMILES | % of occupation of the receptors, 1 hour [1] [%] | % of occupation of the receptors, 24 hours [1] [%] | ED50 [2] [mg/kg] | Duration of action, 24 h, oral dose 1 mg/kg ([2]; 24 h after administration) | Duration of action, 24 h, oral dose 10 mg/kg ([2]; oral dose 10 mg/kg, 24 h after administration) | Ki [3] [nM] | % of occupation of the receptors, 24 hours ([1]; 10 mg/kg) [%] | % of occupation of the receptors, 24 hours ([1]; listed as compound of formula (I), 10 mg/kg) [%] | antagonist nature in models of adenylate-cyclase inhibition [4]
Cc1c(C(=O)NN2CCCCC2)nn(-c2ccc(Cl)cc2Cl)c1-c1ccc(Br)cc1 [Compound A, reference compound] | 89 | 4 | 0.3 | not active | active | 8 |  |  | 
CCc1c(C(=O)NN2CCCCC2)nn(-c2ccc(Cl)cc2Cl)c1-c1ccc(Br)cc1 [Compound of formula (I), N-piperidino-5-(4-bromophenyl)-1-(2,4-dichlorophenyl)-4-ethylpyrazole-3-carboxamide] | 82 |  | 0.3 | active |  | 5.4 | 44 | 44 | antagonist
